According to article PMC6478823, “A suite of phenotypic assays to ensure pipeline diversity when prioritizing drug-like Cryptosporidium growth inhibitors” (Nature Communications, 2019):

Experiments:
C. parvum = test: DNA replication assay (EdU incorporation); format: cell-based, Cryptosporidium parvum; conditions: compound at EC90; for DNA Synthesis Assay: Mean % Inhibition of EdU-labeling (normalized to parasite numbers), Average: average of replicates; for DNA Synthesis Assay: Mean % Inhibition of EdU-labeling (normalized to parasite numbers), Replicate 1: single replicate 1; for DNA Synthesis Assay: Mean % Inhibition of EdU-labeling (normalized to parasite numbers), Replicate 2: single replicate 2; for DNA Synthesis Assay: Mean % Inhibition of EdU-labeling (normalized to parasite numbers), Replicate 3: single replicate 3; for DNA Synthesis Assay: Mean % Inhibition of EdU-labeling (normalized to parasite numbers), Replicate 4: single replicate 4; for DNA Synthesis Assay: Mean % Inhibition of EdU-labeling (normalized to parasite numbers), Replicate 5: single replicate 5; for DNA synthesis: yes/no grouping by phenotypic assay result
Source text: Following cell invasion, Cryptosporidium trophozoites grow and multiply to give rise to multinucleated type I meronts (Fig. 3a). The thymidine analog 5-ethynyl-2′-deoxyuridine (EdU) is efficiently incorporated into newly synthesized DNA, and can be detected using click chemistry. We used EdU to measure parasite intracellular DNA replication, as a surrogate for the more complex phenotype of intracellular growth and division. The approach for differentially labeling newly synthesized parasite DNA compared to host cell DNA was to take advantage of the fact that C. parvum replicates more quickly than the nearly confluent host cells. Thus, by adding EdU shortly before egress, it was possible to preferentially label replicating parasites (Fig. 3b, c). DNA staining with Hoechst labeled all of the host and parasite DNA, making it challenging to visualize and quantify parasite DNA. A simple DNA stain would also not distinguish pre-existing DNA from newly synthesized DNA (Fig. 3c). In contrast, EdU labeling only occurred with incorporation into newly synthesized DNA. Incorporated EdU was then easily stained for immunofluorescence and labeled parasites were quantified using high-content microscopy and an NIH ImageJ macro (Fig. 3c, DMSO condition). The […] hydroxyurea (10 mM), a known inhibitor of DNA replication, was used as a positive control for assay validation. […] Compounds with activity in this assay cannot be concluded to specifically target DNA replication, which is a complex phenotype.
Confluent HCT-8 cell monolayers in glass bottom plates were infected with C. parvum, and compounds were added at EC90 following invasion. At 9 h post-infection, 10 µM EdU was added, followed by incubation for another 2 h, and then washing, fixing, and staining for microscopy. […] 40 × dry objective (NA = 0.7); scale = 5 µm. Arrows indicate selected parasites with EdU-labeled DNA. d Quantification of EdU incorporation. […] Data are mean and SD of 2–5 biological replicates.
After incubation of cells with EdU for 2 h, cells were washed 3 times with PBS-D-gal and then fixed with PBS containing 4% PFA. Cells were then permeabilized and stained for EdU using the Click-iT® assay kit (Thermo Fisher Scientific, catalog# C10340) as per the manufacturer’s instructions. Cells were then imaged by focusing on parasites (note that the host cell nuclei are in a different focal plane) using a 40 × dry objective (0.7 NA) and EdU, and lectin numbers quantified using ImageJ software and the custom macro in Supplementary Method 1.

[1] = test system: C. parvum DMC1 expression; test: Sexual differentiation assay (DMC1 expression); format: cell-based, Cryptosporidium parvum; conditions: compound at asexual EC90, 48-72 h; for Asexual to sexual differentiation: Mean % DMC1 inhibition (normalized to host nuclei), Average: average of replicates; for Asexual to sexual differentiation: Mean % DMC1 inhibition (normalized to host nuclei), Replicate 1a: single replicate 1; for Asexual to sexual differentiation: Mean % DMC1 inhibition (normalized to host nuclei), Replicate 2a: single replicate 2; for Asexual to sexual differentiation: Mean % DMC1 inhibition (normalized to host nuclei), Replicate 3a: single replicate 3
Source text: We utilized DMC1 as a marker of C. parvum sexual development, and used the anti-DMC1 monoclonal antibody to develop a moderate-throughput high-content microscopy assay for characterizing anticryptosporidial compounds (Fig. 6a). […] Therefore, in order to enable numerical comparison of the ability of compounds to block sexual development with moderate throughput, we adopted a strategy of reporting the percent inhibition of DMC1 expression by the previously determined EC90 of each compound in the standard asexual development assay (Fig. 6c and Supplementary Table 2).
Fig. 6 Assay to measure asexual-to-sexual-stage conversion. a Schematic of the experimental approach. […] For b and c the mean and SD combined from at least two biological replicates with four technical replicates per experiment are shown. […] At given time points post-infection, infected cells were washed 3 times with PBS containing 111 mM of D-galactose, fixed for 15 min at room temperature with 4% paraformaldehyde in PBS, and permeabilized with 0.25% triton X-100 in PBS for 10 min at 37 °C. Cells were then washed 3 times with PBS and blocked at least overnight at 4 °C with 1% BSA in PBS (blocking buffer). Cells were stained with monoclonal antibody (1H10G7), either neat culture supernatant or 12.8 µg/mL of purified IgG in blocking buffer for 1 h at 37 °C, followed by 2 washes with PBS. Cells were then co-stained with a 1:500 dilution (4 µg/mL) of Alexa Fluor 568 goat anti-mouse IgG (Invitrogen, catalog# A-11004) and 1.33 µg/mL fluorescein-labeled Vicia villosa lectin (Vector Laboratories, catalog# FL-1231) diluted in blocking buffer for 1 h at 37 °C. Stains were then removed and 0.09 mM Hoechst 33258 (AnaSpec, catalog# AS-83219) also diluted in blocking buffer was added for another 15 min at 37 °C, followed by 2 PBS washes and imaging on a Nikon Eclipse Ti2000 epifluorescence microscope run with NIS-Elements Advanced Research software (Nikon, USA) and equipped with an EXi blue fluorescent microscopy camera (QImaging, Canada). For enumerating parasites, tiled 2 × 2 images with 15% overlapping edges were taken using a 40 × dry objective (0.7 NA), and for finer details, Z stack images were acquired using a 60 × oil objective (1.4 NA). Lectin positive cells in focus were first counted, followed by DMC1.
For compound dose-response studies, the same assay was performed in 384-well plates and imaged using a 20 × dry objective (NA = 0.45). Tiled 4 × 4 to 6 × 6 images were taken. Images were analyzed using ImageJ software and the custom macro provided in Supplementary Method 2.

Compound | DNA Synthesis Assay: Mean % Inhibition of EdU-labeling (normalized to parasite numbers), Average (C. parvum) | DNA Synthesis Assay: Mean % Inhibition of EdU-labeling (normalized to parasite numbers), Replicate 1 (C. parvum) | DNA Synthesis Assay: Mean % Inhibition of EdU-labeling (normalized to parasite numbers), Replicate 2 (C. parvum) | DNA Synthesis Assay: Mean % Inhibition of EdU-labeling (normalized to parasite numbers), Replicate 3 (C. parvum) | DNA Synthesis Assay: Mean % Inhibition of EdU-labeling (normalized to parasite numbers), Replicate 4 (C. parvum) | DNA Synthesis Assay: Mean % Inhibition of EdU-labeling (normalized to parasite numbers), Replicate 5 (C. parvum) | DNA synthesis (C. parvum) | Asexual to sexual differentiation: Mean % DMC1 inhibition (normalized to host nuclei), Average [1] | Asexual to sexual differentiation: Mean % DMC1 inhibition (normalized to host nuclei), Replicate 1a [1] | Asexual to sexual differentiation: Mean % DMC1 inhibition (normalized to host nuclei), Replicate 2a [1] | Asexual to sexual differentiation: Mean % DMC1 inhibition (normalized to host nuclei), Replicate 3a [1] | DNA Synthesis Assay: Mean % Inhibition of EdU-labeling (normalized to parasite numbers), Replicate 6 (C. parvum; single replicate 6) | DNA synthesis (mean % inhibition) (C. parvum; EdU added 9 h post-infection for 2 h)
Oc1c(CN2CCN(c3ccccc3F)CC2)cc(Br)c2cccnc12 [A-6] | 89.49% | 98.00% | 97.32% | 80.45% | 78.02% | 93.68% | yes | 17.22% | 31.05% | 3.39% | – | – | –
CCOc1ccc(Cl)c2c1B(O)OC2CN (stereo not shown) [AN6426] | 86.81% | 80.80% | 89.13% | 90.50% | – | – | – | 62.47% | 60.83% | 64.12% | – | – | –
c1ccc(CNc2nc(NCc3ccccc3)c3ccccc3n2)cc1 [B-23] | 1.59% | -16.14% | 17.17% | 3.74% | – | – | no | -6.40% | -17.01% | 2.19% | -4.38% | – | –
O=c1[nH]c(=O)n([C@H]2C[C@H](O)[C@@H](CO)O2)cc1F [Floxuridine] | 20.42% | 15.13% | 27.54% | -10.47% | 28.26% | 37.17% | no | -7.53% | -14.02% | -1.05% | – | 24.87% | –
CCOc1ccc2cc(-c3nn(CC4CCN(C)CC4)c4ncnc(N)c34)ccc2n1 [BKI-1369] | 16.97% | 25.00% | 8.94% | – | – | – | – | 41.93% | -4.30% | 59.32% | 70.76% | – | –
O=C(NC(c1ccccc1)c1ccc2cccnc2c1O)c1ccccc1 (stereo not shown) [A-5] | 99.95% | 100.00% | 100.00% | 99.80% | 100.00% | – | yes | 65.35% | 63.04% | 67.67% | – | – | –
CCC(C)n1ncn(-c2ccc(N3CCN(c4ccc(OCC5COC(Cn6cncn6)(c6ccc(Cl)cc6Cl)O5)cc4)CC3)cc2)c1=O (stereo not shown) [Itraconazole] | -4.89% | 6.01% | -18.49% | -2.19% | – | – | – | 63.93% | 87.85% | 40.00% | – | – | –
Cc1cc(/C=C/c2ccc3cc(N(C)C)ccc3[n+]2C)c(C)n1-c1ccccc1 [Pyrvinium pamoate] | – | 94.57% | 70.33% | – | – | – | – | 68.07% | 51.94% | 84.21% | – | – | 88.30%
O=C(CC1NCCCC1O)Cn1cnc2cc(Br)c(Cl)cc2c1=O (stereo not shown) [Halofuginone] | 88.20% | 85.31% | 91.09% | – | – | – | – | 68.25% | 51.29% | 73.88% | 79.59% | – | –
